Laboratory results reported in ChEMBL document CHEMBL5046215, “Heparan Sulfate Mimetics Differentially Affect Homologous Chemokines and Attenuate Cancer Development” (J Med Chem, 2021).
The source made the active and inactive calls. No cut-off for these calls is given here.

Key:
[1] = molecular target: T1, C-C motif chemokine 5 (Homo sapiens) (UniProt P13501); assay: Binding affinity to human CCL5 at 100 uM by glycan microarray analysis
T1 sequence (whole entry): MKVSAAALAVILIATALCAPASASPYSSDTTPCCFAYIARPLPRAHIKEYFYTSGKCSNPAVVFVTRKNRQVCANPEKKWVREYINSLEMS

[2] = molecular target: Interleukin-8 (Homo sapiens) (UniProt P10145); assay: Binding affinity to human CXCL8 at 100 uM by glycan microarray analysis
Homo sapiens [3] = organism: Homo sapiens; assay: Binding affinity to human CCL13 at 100 uM by glycan microarray analysis
[4] = molecular target: T2, Stromal cell-derived factor 1 (Homo sapiens, UniProt P48061); assay: Binding affinity to human CXCL12 at 100 uM by glycan microarray analysis
[5] = molecular target: C-C motif chemokine 7 (Homo sapiens) (UniProt P80098); assay: Binding affinity to human CCL7 at 100 uM by glycan microarray analysis
C-C motif chemokine 2 [6] = molecular target: T3, C-C motif chemokine 2 (Homo sapiens, UniProt P13500); assay: Binding affinity to human CCL2 at 100 uM by glycan microarray analysis
Target sequence in this assay (P13500 24-99 limits assumed): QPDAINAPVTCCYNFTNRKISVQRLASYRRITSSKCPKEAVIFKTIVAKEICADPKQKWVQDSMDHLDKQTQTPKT

[7] = molecular target: C-X-C motif chemokine 10 (Homo sapiens) (UniProt P02778); assay: Binding affinity to human CXCL10 at 100 uM by glycan microarray analysis
Homo sapiens [8] = organism: Homo sapiens; assay: Binding affinity to human CCL21 at 100 uM by glycan microarray analysis
Homo sapiens [9] = organism: Homo sapiens; assay: Binding affinity to human CCL28 at 100 uM by glycan microarray analysis
MCF7 [10] = assay: Antimigratory activity against human MCF7 cells assessed as reduction in cell migration at 10 to 50 ug/ml measured after 5 hrs in presence of CCL2 by wound healing assay relative to control; format: functional; conditions: dose 10-50 µg/ml
[11] = molecular target: T2, Stromal cell-derived factor 1; assay: Binding affinity to human CXCL12 assessed as dissociation constant incubated for 3 mins by surface plasmon resonance analysis
MCF7 [12] = assay: Decrease in MAPK expression in human MCF7 cells at 50 ug/ml measured after 30 mins in presence of CCL2 by Western blot analysis; format: functional, cell-based; conditions: dose 50.0 µg/ml
C-C motif chemokine 2 [13] = molecular target: T3, C-C motif chemokine 2; assay: Binding affinity to human CCL2 assessed as on-rate constant incubated for 3 mins by surface plasmon resonance analysis
Target sequence in this assay (P13500 24-99 limits assumed): as above

C-C motif chemokine 2 [14] = molecular target: T3, C-C motif chemokine 2; assay: Binding affinity to human CCL2 assessed as dissociation constant incubated for 3 mins by surface plasmon resonance analysis
Target sequence in this assay (P13500 whole entry): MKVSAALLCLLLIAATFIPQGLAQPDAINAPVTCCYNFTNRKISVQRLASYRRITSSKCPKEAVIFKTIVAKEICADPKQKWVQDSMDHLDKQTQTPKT

[15] = molecular target: T1, C-C motif chemokine 5 (Homo sapiens); assay: Binding affinity to human CCL5 assessed as on-rate constant incubated for 3 mins by surface plasmon resonance analysis
[16] = molecular target: T1, C-C motif chemokine 5 (Homo sapiens); assay: Binding affinity to human CCL5 assessed as off-rate constant incubated for 3 mins by surface plasmon resonance analysis
C-X-C motif chemokine 10 = molecular target: T4, C-X-C motif chemokine 10 (Homo sapiens, UniProt P02778); assay: Binding affinity to human CXCL10 assessed as dissociation constant incubated for 3 mins by surface plasmon resonance analysis
T4 sequence (P02778 whole entry): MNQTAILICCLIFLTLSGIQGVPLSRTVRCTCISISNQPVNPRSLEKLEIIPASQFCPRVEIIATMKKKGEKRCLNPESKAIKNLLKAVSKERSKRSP

Interleukin-8 = molecular target: T5, Interleukin-8 (Homo sapiens, UniProt P10145); assay: Binding affinity to human CXCL8 assessed as dissociation constant incubated for 3 mins by surface plasmon resonance analysis
T5 sequence (P10145 whole entry): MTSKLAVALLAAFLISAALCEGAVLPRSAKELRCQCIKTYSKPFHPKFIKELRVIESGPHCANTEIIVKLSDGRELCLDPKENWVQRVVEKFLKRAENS

MCF7 [17] = assay: Anti-proliferative activity against human MCF7 cells assessed as reduction in cell proliferation at 10 to 50 ug/ml compound pretreated with CCL2 followed by incubation with cells and measured after 48 hrs by Sulforhodamine B staining based WST assay; format: functional; conditions: dose 10-50 µg/ml, at 10 to 50 µg/mL
MCF7 [18] = assay: Induction of cell cycle arrest in human MCF7 cells assessed as accumulation of cells at G2/M phase incubated for 72 hrs in presence of CCL2 by PI staining based flow cytometric analysis; format: functional
MDA-MB-231 = assay: Anti-proliferative activity against human MDA-MB-231 cells assessed as reduction in cell proliferation at 10 to 50 ug/ml compound pretreated with CCL2 followed by incubation with cells and measured after 48 hrs by Sulforhodamine B staining based WST assay; format: functional; conditions: dose 10-50 µg/ml, at 10 to 50 µg/mL
C-C motif chemokine 2 [19] = molecular target: T3, C-C motif chemokine 2; assay: Binding affinity to human CCL2 assessed as off-rate constant incubated for 3 mins by surface plasmon resonance analysis
Target sequence in this assay (P13500 24-99 limits assumed): as the sequence (P13500 24-99 limits assumed) above

[20] = molecular target: Interleukin-8 (Homo sapiens) (UniProt P10145); assay: Binding affinity to human CXCL8 assessed as on-rate constant incubated for 3 mins by surface plasmon resonance analysis
[21] = molecular target: Interleukin-8 (Homo sapiens) (UniProt P10145); assay: Binding affinity to human CXCL8 assessed as off-rate constant incubated for 3 mins by surface plasmon resonance analysis
C-C motif chemokine 5 = molecular target: T6, C-C motif chemokine 5 (Homo sapiens, UniProt P13501); assay: Binding affinity to human CCL5 assessed as dissociation constant incubated for 3 mins by surface plasmon resonance analysis
T6 sequence (P13501 whole entry): T1 sequence (whole entry)

MCF7 [22] = assay: Antiinvasive activity against human MCF7 cells assessed as inhibition of cell invasion at 50 ug/ml measured after 24 hrs in presence of CCL2 by crystal violet staining based Boyden chamber analysis; format: functional; conditions: dose 50.0 µg/ml

T2 sequence (P48061 whole entry): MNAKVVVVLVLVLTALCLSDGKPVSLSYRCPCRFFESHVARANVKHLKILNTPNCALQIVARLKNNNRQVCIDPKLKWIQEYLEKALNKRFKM
Sequence of C-C motif chemokine 7 (Homo sapiens) (P80098 whole entry): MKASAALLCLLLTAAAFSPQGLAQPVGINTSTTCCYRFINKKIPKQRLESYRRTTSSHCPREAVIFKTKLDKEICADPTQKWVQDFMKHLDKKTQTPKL

| SMILES | Activity [1] [%] | Activity [2] [%] | Activity (Homo sapiens [3]) [%] | Activity [4] [%] | Activity [5] [%] | Activity (C-C motif chemokine 2 [6]) [%] | Activity [7] [%] | Activity (Homo sapiens [8]) [%] | Activity (Homo sapiens [9]) [%] | also measured |
| --- | --- | --- | --- | --- | --- | --- | --- | --- | --- | --- |
| NCCOCCO[C@@H]1O[C@@H](C(=O)O)[C@@H](O[C@@H]2O[C@@H](C(=O)O)[C@@H](O)[C@H](O)[C@H]2O)[C@H](O)[C@H]1O | 2 | 12 | 82 | 66 | 30 | 2 | 45 | 63 | 58 |  |
| NCCOCCO[C@@H]1O[C@@H](C(=O)O)[C@@H](O[C@@H]2O[C@@H](C(=O)O)[C@@H](OS(=O)(=O)O)[C@H](O)[C@H]2O)[C@H](O)[C@H]1O | 38 | 73 | 94 | 79 | 55 | 25 | 67 | 71 | 84 |  |
| NCCOCCO[C@@H]1O[C@@H](C(=O)O)[C@@H](OS(=O)(=O)O)[C@H](O)[C@H]1OS(=O)(=O)O | 75 | 71 | 53 | 75 | 94 | 66 | 82 | 79 | 51 |  |
| NCCOCCO[C@@H]1O[C@@H](C(=O)O)[C@@H](O[C@@H]2O[C@@H](C(=O)O)[C@@H](O[C@@H]3O[C@@H](C(=O)O)[C@@H](O[C@@H]4O[C@@H](C(=O)O)[C@@H](OS(=O)(=O)O)[C@H](O)[C@H]4O)[C@H](O)[C@H]3O)[C@H](O)[C@H]2O)[C@H](O)[C@H]1O | 10 | 13 | 72 | 45 | 12 | 0 | 23 | 60 | 54 | Activity (MCF7 [10]): inactive |
| NCCOCCO[C@@H]1O[C@@H](C(=O)O)[C@@H](O[C@@H]2O[C@@H](C(=O)O)[C@@H](O[C@@H]3O[C@@H](C(=O)O)[C@@H](OS(=O)(=O)O)[C@H](O)[C@H]3OS(=O)(=O)O)[C@H](O)[C@H]2OS(=O)(=O)O)[C@H](O)[C@H]1OS(=O)(=O)O | 80 | 95 | 67 | 82 | 79 | 67 | 74 | 80 | 84 |  |
| NCCOCCO[C@@H]1O[C@@H](C(=O)O)[C@@H](O[C@@H]2O[C@@H](C(=O)O)[C@@H](O[C@@H]3O[C@@H](C(=O)O)[C@@H](O[C@@H]4O[C@@H](C(=O)O)[C@@H](O)[C@H](O)[C@H]4O)[C@H](O)[C@H]3O)[C@H](O)[C@H]2O)[C@H](O)[C@H]1O | 2 | 12 | 67 | 56 | 33 | 2 | 44 | 48 | 56 |  |
| NCCOCCO[C@@H]1O[C@@H](C(=O)O)[C@@H](O[C@@H]2O[C@@H](C(=O)O)[C@@H](O[C@@H]3O[C@@H](C(=O)O)[C@@H](O[C@@H]4O[C@@H](C(=O)O)[C@@H](OS(=O)(=O)O)[C@H](O)[C@H]4OS(=O)(=O)O)[C@H](O)[C@H]3OS(=O)(=O)O)[C@H](O)[C@H]2OS(=O)(=O)O)[C@H](O)[C@H]1OS(=O)(=O)O | 91 | 96 | 70 | 91 | 80 | 88 | 87 | 50 | 72 | Kd [11]: 18.8 µM; inhibition (MCF7 [12]): Active; K (C-C motif chemokine 2 [13]): 1.26 10^5/M/s; Kd (C-C motif chemokine 2 [14]): 1670 nM; inhibition (INH) (MCF7 [10]; at 10 to 50 µg/mL): 34%; K [15]: 4.2 10^4/M/s; K [16]: 2.4 10^-1/s; Kd (C-X-C motif chemokine 10): 19.5 µM; Kd (Interleukin-8): 9.34 µM; inhibition (INH) (MCF7 [17]): 40%; Activity (MCF7 [18]): 19%; inhibition (INH) (MDA-MB-231): 40%; K (C-C motif chemokine 2 [19]): 2.1 10^-1/s; K [20]: 3.16 10^5/M/s; K [21]: 2.96 10^-1/s; Kd (C-C motif chemokine 5): 5.72 µM; Activity (MCF7 [22]): Active |
| NCCOCCO[C@@H]1O[C@@H](C(=O)O)[C@@H](O[C@@H]2O[C@@H](C(=O)O)[C@@H](O[C@@H]3O[C@@H](C(=O)O)[C@@H](OS(=O)(=O)O)[C@H](O)[C@H]3O)[C@H](O)[C@H]2O)[C@H](O)[C@H]1O | 30 | 63 | 86 | 92 | 75 | 36 | 78 | 83 | 80 |  |
| NCCOCCO[C@@H]1O[C@@H](C(=O)O)[C@@H](O[C@@H]2O[C@@H](C(=O)O)[C@@H](O[C@@H]3O[C@@H](C(=O)O)[C@@H](O)[C@H](O)[C@H]3O)[C@H](O)[C@H]2O)[C@H](O)[C@H]1O | 1 | 5 | 69 | 38 | 17 | 0 | 24 | 46 | 72 |  |
| NCCOCCO[C@@H]1O[C@@H](C(=O)O)[C@@H](O)[C@H](O)[C@H]1O | 2 | 17 | 74 | 62 | 30 | 4 | 47 | 52 | 46 |  |
| NCCOCCO[C@@H]1O[C@@H](C(=O)O)[C@@H](OS(=O)(=O)O)[C@H](O)[C@H]1O | 15 | 62 | 81 | 64 | 58 | 23 | 57 | 62 | 80 |  |
| NCCOCCO[C@@H]1O[C@@H](C(=O)O)[C@@H](O[C@@H]2O[C@@H](C(=O)O)[C@@H](OS(=O)(=O)O)[C@H](O)[C@H]2OS(=O)(=O)O)[C@H](O)[C@H]1OS(=O)(=O)O | 86 | 83 | 88 | 98 | 87 | 69 | 96 | 86 | 76 |  |
